Data taken from ChEMBL document CHEMBL3132797, “Synthesis and biological evaluation of substituted N-alkylphenyl-3,5-dinitrobenzamide analogs as anti-TB agents” (Medchemcomm, 2014).
Values after ≈ are worked out from the molar mass of the structure shown.

What was measured:
[1] = system: Mycobacterium tuberculosis; experiment: Antimycobacterial activity against Mycobacterium tuberculosis H37Rv ATCC 27294 by broth dilution method; assay type: functional
[2] = AUC (0 to t) in Balb mouse at 1 mg/kg, iv; assay type: ADME, organism-based; set-up: dose 1 mg/kg, route intravenous; conditions: plasma
[3] = Clearance in Balb mouse at 1 mg/kg, iv; assay type: ADME, organism-based; set-up: dose 1 mg/kg, route intravenous; conditions: in vivo
[4] = Elimination half life in Balb mouse at 1 mg/kg, iv; assay type: ADME, organism-based; set-up: dose 1 mg/kg, route intravenous; conditions: in vivo, read-out: beta t1/2 (converted)
[5] = Bioavailability in Balb mouse at 2.5 mg/kg, ip; assay type: ADME, organism-based; conditions: in vivo
[6] = Cmax in Balb mouse at 1 mg/kg, iv; assay type: ADME, organism-based; set-up: dose 1 mg/kg, route intravenous; conditions: in vivo
[7] = AUC (0 to t) in Balb mouse at 2.5 mg/kg, ip; assay type: ADME, organism-based; set-up: dose 2.5 mg/kg, route intraperitoneal; conditions: plasma
[8] = Elimination half life in Balb mouse at 2.5 mg/kg, ip; assay type: ADME, organism-based; set-up: dose 2.5 mg/kg, route intraperitoneal; conditions: in vivo, read-out: beta t1/2 (converted)
[9] = Tmax in Balb mouse at 2.5 mg/kg, ip; assay type: ADME, organism-based; set-up: dose 2.5 mg/kg, route intraperitoneal; conditions: in vivo
[10] = Cmax in Balb mouse at 2.5 mg/kg, ip; assay type: ADME, organism-based; set-up: dose 2.5 mg/kg, route intraperitoneal; conditions: in vivo
[11] = system: J774; experiment: Cytotoxicity against mouse J774 cells at 20 ug/ml after 24 hrs by MTT assay; assay type: cell-based; conditions: j774, 24 h
[12] = system: J774; experiment: Cytotoxicity against mouse J774 cells after 24 hrs by MTT assay; assay type: cell-based; conditions: J774, 24 h
[13] = Selectivity index, ratio of IC50 for mouse J774 cells to MIC for Mycobacterium tuberculosis H37Rv ATCC 27294; assay type: toxicity, cell-based; conditions: read-out: Selectivity Index
[14] = system: Mycobacterium tuberculosis; experiment: Antimycobacterial activity against Mycobacterium tuberculosis H37Rv ATCC 27294 infected in mouse J774 cells assessed as intracellular killing after 48 hrs by colony formation assay; assay type: functional; conditions: H37Rv ATCC 27294, 48 h
[15] = system: Mycobacterium tuberculosis; experiment: Bactericidal activity against Mycobacterium tuberculosis H37Rv ATCC 27294 by broth dilution method; assay type: functional

With `O=C(Nc1ccccc1F)c1cc([N+](=O)[O-])cc([N+](=O)[O-])c1` the MIC [1] was 26.1 µM (≈ 7.96 µg/mL).

In the case of `O=C(Nc1cc(Cl)cc(Cl)c1)c1cc([N+](=O)[O-])cc([N+](=O)[O-])c1`, the MIC [1] is reported as 22.5 µM (≈ 8.02 µg/mL).

In the case of `N#Cc1ccccc1NC(=O)c1cc([N+](=O)[O-])cc([N+](=O)[O-])c1`, the MIC [1] is reported as 6.4 µM (≈ 2 µg/mL).

Compound `COc1ccc(CCNC(=O)c2cc([N+](=O)[O-])cc([N+](=O)[O-])c2)cc1` has an MIC [1] of 1.45 µM (≈ 0.501 µg/mL).

Work on `CCCCC(CC)CNC(=O)c1cc([N+](=O)[O-])cc([N+](=O)[O-])c1` (centres undefined) yielded an MIC [1] of 0.19 µM (≈ 0.0614 µg/mL).

For `O=C(NC1CCCC1)c1cc([N+](=O)[O-])cc([N+](=O)[O-])c1`, the MIC [1] was 0.9 µM (≈ 0.251 µg/mL).

With `Cc1c([N+](=O)[O-])cc(C(=O)NCc2ccccc2)cc1[N+](=O)[O-]` the MIC [1] was 0.38 µM (≈ 0.12 µg/mL).

`Cc1ccc([C@@H](C)NC(=O)c2cc([N+](=O)[O-])c(C)c([N+](=O)[O-])c2)cc1` showed an AUC(0-t) [2] of 0.352 µM·h, a clearance [3] of 134 mL/min/kg and a half-life [4] of 55.8 min. The bioavailability [5] was 49%, the Cmax [6] was 673 nM and the AUC(0-t) [7] was 0.431 µM·h. For the same compound, the half-life [8] was 97.8 min, the Tmax [9] was 30 min and the Cmax [10] was 177 nM. The Activity [11] was “Non-toxic”, the IC50 [12] was > 58.2 µM and the selectivity ratio [13] was > 666. For the same compound, the MIC [14] was 1.44 µM (≈ 0.494 µg/mL), the MBC [15] was 0.72 µM (≈ 0.247 µg/mL) and the MIC [1] was 0.09 µM (≈ 0.0309 µg/mL).

Work on `Cc1ccc([C@H](C)NC(=O)c2cc([N+](=O)[O-])c(C)c([N+](=O)[O-])c2)cc1` yielded an MIC [1] of 11.7 µM (≈ 4 µg/mL).

With `Cc1c([N+](=O)[O-])cc(C(=O)N[C@H](C)c2ccc(F)cc2)cc1[N+](=O)[O-]` the Activity [11] was “Non-toxic”, the IC50 [12] was > 57.6 µM and the selectivity ratio [13] was > 333. The MIC [14] was 0.71 µM (≈ 0.247 µg/mL), the MBC [15] was 0.17 µM (≈ 0.059 µg/mL) and the MIC [1] was 0.17 µM (≈ 0.059 µg/mL).

For `Cc1c([N+](=O)[O-])cc(C(=O)N[C@@H](C)c2ccc(F)cc2)cc1[N+](=O)[O-]`, the AUC(0-t) [2] was 0.374 µM·h, the clearance [3] was 111 mL/min/kg and the half-life [4] was 54 min. For the same compound, the bioavailability [5] was 35%, the Cmax [6] was 711 nM and the AUC(0-t) [7] was 0.351 µM·h. For the same compound, the half-life [8] was 64.8 min, the Tmax [9] was 15 min and the Cmax [10] was 216 nM. The Activity [11] was “Non-toxic”, the IC50 [12] was > 57.6 µM and the selectivity ratio [13] was > 1330. The MIC [14] was < 0.64 µM, the MBC [15] was < 0.04 µM and the MIC [1] was 0.04 µM (≈ 0.0139 µg/mL).

Work on `Cc1c([N+](=O)[O-])cc(C(=O)N[C@H](C)c2ccc(Cl)cc2)cc1[N+](=O)[O-]` yielded an MIC [1] of 1.38 µM (≈ 0.502 µg/mL).

For `Cc1c([N+](=O)[O-])cc(C(=O)N[C@@H](C)c2ccc(Cl)cc2)cc1[N+](=O)[O-]`, the MIC [1] was > 5.51 µM.

`COc1ccc([C@@H](C)NC(=O)c2cc([N+](=O)[O-])c(C)c([N+](=O)[O-])c2)cc1` gave an MIC [1] of 0.7 µM (≈ 0.252 µg/mL).

Compound `COc1ccc([C@H](C)NC(=O)c2cc([N+](=O)[O-])c(C)c([N+](=O)[O-])c2)cc1` has an MIC [1] of 1.39 µM (≈ 0.499 µg/mL).

Work on `Cc1c([N+](=O)[O-])cc(C(=O)N[C@H](C)c2ccccc2)cc1[N+](=O)[O-]` yielded an MIC [1] of 0.36 µM (≈ 0.119 µg/mL).

With `Cc1ccc([C@@H](C)NC(=O)c2cc([N+](=O)[O-])cc([N+](=O)[O-])c2)cc1` the Activity [11] was “Non-toxic”, the IC50 [12] was > 60.8 µM and the selectivity ratio [13] was > 1330. For the same compound, the MIC [14] was 0.8 µM (≈ 0.263 µg/mL), the MBC [15] was 0.2 µM (≈ 0.0659 µg/mL) and the MIC [1] was 0.05 µM (≈ 0.0165 µg/mL).

For `Cc1ccc([C@H](C)NC(=O)c2cc([N+](=O)[O-])cc([N+](=O)[O-])c2)cc1`, the MIC [1] was 0.76 µM (≈ 0.25 µg/mL).

For `C[C@@H](NC(=O)c1cc([N+](=O)[O-])cc([N+](=O)[O-])c1)c1ccc(F)cc1`, the MIC [1] was > 12 µM.

Work on `C[C@H](NC(=O)c1cc([N+](=O)[O-])cc([N+](=O)[O-])c1)c1ccc(F)cc1` yielded an MIC [1] of 3 µM (≈ 1 µg/mL).

`C[C@@H](NC(=O)c1cc([N+](=O)[O-])cc([N+](=O)[O-])c1)c1ccc(Cl)cc1` gave an MIC [1] of 0.17 µM (≈ 0.0595 µg/mL).

Compound `C[C@H](NC(=O)c1cc([N+](=O)[O-])cc([N+](=O)[O-])c1)c1ccc(Cl)cc1` has an MIC [1] of 1.43 µM (≈ 0.5 µg/mL).

In the case of `COc1ccc([C@@H](C)NC(=O)c2cc([N+](=O)[O-])cc([N+](=O)[O-])c2)cc1`, the MIC [1] is reported as 2.9 µM (≈ 1 µg/mL).

For `CC(C)c1ccc(NC(=O)c2cc([N+](=O)[O-])cc([N+](=O)[O-])c2)cc1`, the MIC [1] was 12.1 µM (≈ 4 µg/mL).

For `Cc1ccc(C(C)NC(=O)c2cc([N+](=O)[O-])c(C)c([N+](=O)[O-])c2)cc1` (racemic), the Activity [11] was “Non-toxic”, the IC50 [12] was > 58.2 µM and the selectivity ratio [13] was > 1330. The MIC [14] was 0.72 µM (≈ 0.247 µg/mL), the MBC [15] was < 0.04 µM and the MIC [1] was < 0.17 µM.

Work on `CO[C@H]1/C=C/O[C@@]2(C)Oc3c(C)c(O)c4c(O)c(c(/C=N/N5CCN(C)CC5)c(O)c4c3C2=O)NC(=O)/C(C)=C\C=C\[C@H](C)[C@H](O)[C@@H](C)[C@@H](O)[C@@H](C)[C@H](OC(C)=O)[C@@H]1C` [RIFAMPIN] yielded an MIC [1] of 0.07 µM (≈ 0.0576 µg/mL).
